# In patent US4521422A, “Aryl and heteroaryl[7-(aryl and heteroaryl)pyrazolo[1,5-a]pyrimidin-3-yl]methanones” (American Cyanamid Company, priority 1984, dated 1985):
# Tested on: Clonic Seizures Caused by Pentylenetetrazole in Rats
# Assay: Protection against clonic seizures caused by pentylenetetrazole in rats
# Type: in vivo
# Details: Rattus norvegicus; dose 25.0 mg/kg, oral or i.p.; pentylenetetrazole 23 mg/kg i.v. at 30 or 60 min; read-out: % of Rats Protected
# Procedure: The anti-anxiety and anticonvulsant properties of the novel compounds of the present invention have been established in a test which indicates anxiolytic and antiepileptic activity by the measure of protection from convulsions resulting from the administration of pentylenetetrazole. Single or graded dose levels of the test compounds were administered orally or intraperitoneally in a 2% starch vehicle, containing 0.5% v/v polyethylene glycol and one drop of Polysorbate 80 to groups of at least 4 rats. At 30 or 60 minutes, the rats were treated intravenously with pentylenetetrazole at a dose of 23 mg/kg of body weight. This dose is estimated to cause clonic seizures in 99% of unprotected rats. It has been reported [R. T. Hill and D. H. Tedeschi, "Animal Testing and Screening Procedures in Evaluating Psychotropic Drugs" in "An Introduction to Psychopharmacology", Eds. R. R. Rech and K. E. Moore, Raven Press, New York, pp 237-288 (1971)] that there is a high degree of correlation between antagonism of pentylenetetrazole seizures in rats and anti-anxietyor anticonvulsant effects in higher warm-blooded animals.
row,Structure (SMILES),responders at 25 mg/kg [%]
1,"COc1cccc(C(=O)c2cnn3c(-c4ccncc4)ccnc23)c1 [(3-methoxyphenyl)[7-(4-pyridinyl)pyrazolo[1,5-a]pyrimidin-3-yl]methanone]",50
2,"Cc1cccc(C(=O)c2cnn3c(-c4ccncc4)ccnc23)c1 [(3-methylphenyl)[7-(4-pyridinyl)pyrazolo[1,5-a]pyrimidin-3-yl]methanone]",100
3,"COc1ccc(C(=O)c2cnn3c(-c4ccc[n+]([O-])c4)ccnc23)cc1 [(4-Methoxyphenyl)[7-(3-pyridinyl)pyrazolo[1,5-a]pyrimidin-3-yl]methanone, pyridine-1-oxide]",25
4,"Cc1cc(-c2cccc(C(F)(F)F)c2)n2ncc(C(=O)c3ccc(Cl)cc3)c2n1 [(4-chlorophenyl)[5-methyl-7-[3-(trifluoromethyl)phenyl]pyrazolo[1,5-a]pyrimidin-3-yl]methanone]",25
5,"CCOc1ccc(C(=O)c2cnn3c(-c4cccnc4)ccnc23)cc1 [(4-ethoxyphenyl)[7-(3-pyridinyl)pyrazolo[1,5-a]pyrimidin-3-yl]methanone]",25
6,"Cc1cc(-c2cccc(C(F)(F)F)c2)n2ncc(C(=O)c3ccc(F)cc3)c2n1 [(4-fluorophenyl)[5-methyl-7-[3-(trifluoromethyl)phenyl]pyrazolo[1,5-a]pyrimidin-3-yl]methanone]",25
7,"Cc1cnc2c(C(=O)c3ccc(F)cc3)cnn2c1-c1cccnc1 [(4-fluorophenyl)[6-methyl-7-(3-pyridinyl)pyrazolo[1,5-a]pyrimidin-3-yl]methanone]",75
8,"O=C(c1ccc(F)cc1)c1cnn2c(-c3ccc(C(F)(F)F)cc3)ccnc12 [(4-fluorophenyl)[7-[4-(trifluoromethyl)phenyl]pyrazolo[1,5-a]pyrimidin-3-yl]methanone]",50
9,"COc1ccc(C(=O)c2cnn3c(-c4ccncc4)ccnc23)cc1 [(4-methoxyphenyl)[7-(4-pyridinyl)pyrazolo[1,5-a]pyrimidin-3-yl]methanone]",25
10,"Cc1ccc(C(=O)c2cnn3c(-c4cccnc4)ccnc23)s1 [(5-methyl-2-thienyl)[7-(3-pyridinyl)pyrazolo[1,5-a]pyrimidin-3-yl]methanone]",25
11,"O=C(c1ccccc1)c1cnn2c(-c3ccc[n+]([O-])c3)ccnc12 [Phenyl[7-(3-pyridinyl)pyrazolo[1,5-a]pyrimidin-3-yl]methanone, pyridine-1-oxide]",25
12,"Cc1nn2c(-c3ccncc3)ccnc2c1C(=O)c1ccccc1 [[2-methyl-7-(4-pyridinyl)pyrazolo[1,5-a]pyrimidin-3-yl]phenylmethanone]",25
13,"CN(C)c1ccc(C(=O)c2cnn3c(-c4ccncc4)ccnc23)cc1 [[4-(dimethylamino)phenyl][7-(4-pyridinyl)pyrazolo[1,5-a]pyrimidin-3-yl]methanone]",75
14,"O=C(c1ccc(C(F)(F)F)cc1)c1cnn2c(-c3ccc(C(F)(F)F)cc3)ccnc12 [[4-(trifluoromethyl)phenyl][7-[4-(trifluoromethyl)phenyl]pyrazolo[1,5-a]pyrimidin-3-yl]methanone]",25
15,"Cc1cnc2c(C(=O)c3ccccc3)cnn2c1-c1cccc(C(F)(F)F)c1 [[6-methyl-7-[3-(trifluoromethyl)phenyl]pyrazolo[1,5-a]pyrimidin-3-yl]phenylmethanone]",25
16,"O=C(c1ccc(C(F)(F)F)cc1)c1cnn2c(-c3ccc(Cl)c(Cl)c3)ccnc12 [[7-(3,4-dichlorophenyl)pyrazolo[1,5-a]pyrimidin-3-yl][4-(trifluoromethyl)phenyl]methanone]",50
17,"O=C(c1cccs1)c1cnn2c(-c3cccc(F)c3)ccnc12 [[7-(3-fluorophenyl)pyrazolo[1,5-a]pyrimidin-3-yl]-2-thienylmethanone]",25
18,"COc1cc(C(=O)c2cnn3c(-c4cccnc4)ccnc23)cc(OC)c1OC [[7-(3-pyridinyl)pyrazolo[1,5-a]pyrimidin-3-yl](3,4,5-trimethoxyphenyl)methanone]",25
19,"COc1ccccc1C(=O)c1cnn2c(-c3ccc(F)cc3)ccnc12 [[7-(4-fluorophenyl)pyrazolo[1,5-a]pyrimidin-3-yl](2-methoxyphenyl)methanone]",50
20,"O=C(c1ccncc1)c1cnn2c(-c3ccc(F)cc3)ccnc12 [[7-(4-fluorophenyl)pyrazolo[1,5-a]pyrimidin-3-yl]-4-pyridinylmethanone]",75
21,"O=C(c1cccc(C(F)(F)F)c1)c1cnn2c(-c3ccc(F)cc3)ccnc12 [[7-(4-fluorophenyl)pyrazolo[1,5-a]pyrimidin-3-yl][3-(trifluoromethyl)phenyl]methanone]",25
22,"COc1cc(C(=O)c2cnn3c(-c4ccncc4)ccnc23)cc(OC)c1OC [[7-(4-pyridinyl)pyrazolo[1,5-a]pyrimidin-3-yl](3,4,5-trimethoxyphenyl)methanone]",25
23,"O=C(c1ccsc1)c1cnn2c(-c3ccncc3)ccnc12 [[7-(4-pyridinyl)pyrazolo[1,5-a]pyrimidin-3-yl]-3-thienylmethanone]",50
24,"CSc1ccc(-c2ccnc3c(C(=O)c4ccccc4)cnn23)cc1 [[7-[4-(methylthio)phenyl]pyrazolo[1,5-a]pyrimidin-3-yl]phenylmethanone]",50

# Tested on: Brain-Specific Receptors of Rats
# Assay: Inhibition of the binding of 3H-benzodiazepine to brain-specific receptors of rats
# Set-up: species or system rat (Wistar)
# Details: 3H-diazepam 1.5 nM or 3H-flunitrazepam 1.0 nM; rat cortex P2 fraction; test concentration not given
row,Structure (SMILES),% Inhibition [%]
1,"O=C(c1ccco1)c1cnn2c(-c3ccccc3)ccnc12 [2-Furanyl(7-phenylpyrazolo[1,5-a]pyrimidin-3-yl)methanone]",81
2,"O=C(c1ccccn1)c1cnn2c(-c3ccccn3)ccnc12 [2-pyridinyl[7-(2-pyridinyl)pyrazolo[1,5-a]pyrimidin-3-yl]methanone]",77
3,"O=C(c1ccccn1)c1cnn2c(-c3cccs3)ccnc12 [2-pyridinyl[7-(2-thienyl)pyrazolo[1,5-a]pyrimidin-3-yl]methanone]",24
4,"N#Cc1ccc(-c2ccnc3c(C(=O)c4ccccc4)cnn23)cc1 [4-(3-benzoylpyrazolo[1,5-a]pyrimidin-7-yl)benzonitrile]",10
5,"Cc1nn2c(-c3cccc(C(F)(F)F)c3)ccnc2c1C(=O)c1ccccc1 [(2-methyl-7-[3-(trifluoromethyl)phenyl]pyrazolo[1,5-a]pyrimidin-3-yl)phenyl-methanone]",54
6,"COc1cc(OC)cc(C(=O)c2cnn3c(-c4cccnc4)ccnc23)c1 [(3,5-dimethoxyphenyl)[7-(3-pyridinyl)pyrazolo[1,5-a]pyrimidin-3-yl]methanone]",30
7,"O=C(c1cccc(F)c1)c1cnn2c(-c3ccc(F)cc3)ccnc12 [(3-fluorophenyl)[7-(4-fluorophenyl)pyrazolo[1,5-a]pyrimidin-3-yl]methanone]",52
8,"O=C(c1cccc(F)c1)c1cnn2c(-c3cccc(C(F)(F)F)c3)ccnc12 [(3-fluorophenyl)[7-[3-(trifluoromethyl)phenyl]pyrazolo[1,5-a]pyrimidin-3-yl]methanone]",96
9,"O=C(c1ccc(F)cc1)c1cnn2c(-c3cc[n+]([O-])cc3)ccnc12 [(4-Fluorophenyl)[7-(4-pyridinyl)pyrazolo[1,5-a]pyrimidin-3-yl]methanone, pyridine-1-oxide]",15
10,"O=C(c1ccc(Cl)cc1)c1cnn2c(-c3cccnc3)ccnc12 [(4-chlorophenyl)[7-(3-pyridinyl)pyrazolo[1,5-a]pyrimidin-3-yl]methanone]",87
11,"O=C(c1ccc(Cl)cc1)c1cnn2c(-c3ccc(F)cc3)ccnc12 [(4-chlorophenyl)[7-(4-fluorophenyl)pyrazolo[1,5-a]pyrimidin-3-yl]methanone]",16
12,"O=C(c1ccc(F)cc1)c1cnn2c(-c3ccccc3)ccnc12 [(4-fluorophenyl)(7-phenylpyrazolo[1,5-a]pyrimidin-3-yl)methanone]",42
13,"Cc1cc(-c2cccnc2)n2ncc(C(=O)c3ccc(F)cc3)c2n1 [(4-fluorophenyl)[5-methyl-7-(3-pyridinyl)pyrazolo[1,5-a]pyrimidin-3-yl]methanone]",25
14,"Cc1ccc(C(=O)c2cnn3c(-c4ccccn4)ccnc23)cc1 [(4-methylphenyl)[7-(2-pyridinyl)pyrazolo[1,5-a]pyrimidin-3-yl]methanone]",13
15,"Cc1ccc(C(=O)c2cnn3c(-c4ccsc4)ccnc23)cc1 [(4-methylphenyl)[7-(3-thienyl)pyrazolo[1,5-a]pyrimidin-3-yl]methanone]",58
16,"O=C(c1cccc(C(F)(F)F)c1)c1cnn2c(-c3ccccc3)ccnc12 [(7-phenylpyrazolo[1,5-a]pyrimidin-3-yl)[3-(trifluoromethyl)phenyl]methanone]",19
17,"CC(=O)Nc1cccc(-c2ccnc3c(C(=O)c4ccccc4)cnn23)c1 [N--[3-(3-benzoylpyrazolo[1,5-a]pyrimidin-7-yl)phenyl]acetamide]",65
18,"CC(=O)Nc1ccc(-c2ccnc3c(C(=O)c4ccccc4)cnn23)cc1 [N-[4-(3-Benzoylpyrazolo[1,5-a]pyrimidin-7-yl)phenyl]acetamide]",33
19,"O=C(c1ccccc1)c1cnn2c(-c3ccccc3)ccnc12 [Phenyl(7-phenylpyrazolo[1,5-a]pyrimidin-3-yl)methanone]",55
